The target of experiment [1] is T1, native human Bradykinin B1 receptor (Homo sapiens, UniProt P46663).
T1 construct: which express native human Bradykinin B1 receptor after induction with human IL-10; Coriell Institute; host or cells: IMR-90 human foetal lung fibroblasts, cytokine-induced
T1 sequence (P46663 1-353): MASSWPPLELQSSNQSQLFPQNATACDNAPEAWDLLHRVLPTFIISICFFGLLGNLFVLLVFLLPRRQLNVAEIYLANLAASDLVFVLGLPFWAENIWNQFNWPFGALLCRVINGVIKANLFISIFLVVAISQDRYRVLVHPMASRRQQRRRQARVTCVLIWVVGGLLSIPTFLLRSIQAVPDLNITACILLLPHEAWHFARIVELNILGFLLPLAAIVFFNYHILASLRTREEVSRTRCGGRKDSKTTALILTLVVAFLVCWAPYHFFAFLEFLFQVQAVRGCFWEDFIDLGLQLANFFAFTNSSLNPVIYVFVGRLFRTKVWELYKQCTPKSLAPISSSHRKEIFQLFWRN
The experiment can be described thus: Calcium flux Assay (FLIPR) with human fibroblasts expressing Bradykinin B1 receptor (hB1 IMR-90). It is filed as cell-based. The settings on record: IMR-90 human fibroblasts expressing native Bradykinin B1 receptor. In short, it runs like this:
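IMR-90 human foetal lung fibroblasts induced with 0.35 ng/mL […] for 3 h, Fluo-4/AM-loaded, preincubated with compound (8 concentrations, triplicate) for 30 min at 28 °C, then challenged with Lys-(Des-Arg)-bradykinin at EC90. Ca2+ fluorescence was read at 538 nm; full inhibition set by 20 µM Lys-(Des-Arg-Leu)-bradykinin; IC50 derived.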
In general terms: Calcium flux is commonly read through the fluorescence of an indicator in the cells.

The target in experiment [2] is T2, human Bradykinin B1 receptor (Homo sapiens, UniProt P46663).
T2 construct: host or cells: CHO-K1
T2 sequence (P46663 1-353): T1 sequence (P46663 1-353)
The experiment can be described thus: Calcium flux Assay (FLIPR) with recombinant CHO-K1 cells expressing human Bradykinin B1 receptor, in presence (hB1 IC50) or absence (hB1 free IC50) of 0.1% BSA. The format is cell-based.

[3] abbreviates: in absence of 0.1% BSA, read-out: hB1 free IC50.
[4] abbreviates: in presence of 0.1% BSA, read-out: hB1 IC50.

This note sets out measurements from US20210317092A1 (BAYER PHARMA AKTIENGESELLSCHAFT, priority 2016, published 2021).

Read-outs that look alike come from different tables or passages of the source.

Broadly, the IC50 is the concentration needed to halve the response being measured. `CCOc1ncc(-c2ccc(NC(=O)C3(c4cccc(Cl)c4)CC3)cc2-c2nnn[nH]2)cn1` [Example 184, 1-(3-chlorophenyl)-N-[4-(2-ethoxypyrimidin-5-yl)-3-(1H-tetrazol-5-yl)phenyl] cyclopropane-carboxamide]: the IC50 is 22.3 nM in experiment [1], 24.6 nM in experiment [2] (setting [3]) and 50.5 nM in experiment [2] (setting [4]).
The corresponding values for `CO[C@H]1CC[C@H](c2ccc(NC(=O)C3(c4cccc(Cl)c4)CC3)cc2-c2nnn[nH]2)CC1` [Example 190, 1-(3-chlorophenyl)-N-[4-(trans-4-methoxy-cyclohexyl)-3-(1H-tetrazol-5-yl)phenyl] cyclopropane-carboxamide] are 340 nM, 189 nM and 250 nM.
As for `O=C(Nc1ccc(-c2ccc(C(F)(F)F)nc2)c(-c2nnn[nH]2)c1)C1(c2ccc(C(F)(F)F)cc2F)CC1` [Example 191, 1-[2-fluoro-4-(trifluoromethyl)phenyl]-N-{3-(1H-tetrazol-5-yl)-4-[6-(trifluoromethyl)pyridin-3-yl]phenyl} cyclopropane-carboxamide], the half-inhibitory concentration (IC50) in experiment [1] was found to be 20.5 nM; in experiment [2] (setting [3]), 11.8 nM.
For the compound `O=C(Nc1ccc(-c2ccc(C(F)(F)F)nc2)c(-c2nnn[nH]2)c1)C1(c2ccc(Cl)cc2F)CC1` [Example 192, 1-(4-chloro-2-fluorophenyl)-N-{3-(1H-tetrazol-5-yl)-4-[6-(trifluoromethyl)pyridin-3-yl]phenyl} cyclopropane-carboxamide], the IC50 in experiment [1] came out at 29.1 nM; in experiment [2] (setting [3]), 33.9 nM.
In the case of `O=C(Nc1ccc(-c2ccc(C(F)(F)F)nc2)c(-c2nnn[nH]2)c1)C1(c2ccc(F)c(F)c2)CC1` [Example 193, 1-(3,4-difluorophenyl)-N-{3-(1H-tetrazol-5-yl)-4-[6-(trifluoromethyl)pyridin-3-yl]phenyl} cyclopropane-carboxamide], the half-inhibitory concentration (IC50) in experiment [1] turned out to be 80.6 nM; in experiment [2] (setting [3]), 95.3 nM.
For the compound `O=C(Nc1ccc(-c2cnc(C(F)(F)F)nc2)c(-c2nnn[nH]2)c1)C1(c2cccc(Cl)c2)CC1` [Example 196, 1-(3-chlorophenyl)-N-{3-(1H-tetrazol-5-yl)-4-[2-(trifluoromethyl)pyrimidin-5-yl]phenyl} cyclopropane-carboxamide], the IC50 turned out to be 1450 nM in experiment [1], 759 nM in experiment [2] (setting [3]) and 1370 nM in experiment [2] (setting [4]).
For the compound `CC(F)(F)c1ccc(-c2ccc(NC(=O)C3(c4cccc(Cl)c4)CC3)cc2-c2nnn[nH]2)cn1` [Example 202, 1-(3-chlorophenyl)-N-{4-[6-(1,1-difluoroethyl)pyridin-3-yl]-3-(1H-tetrazol-5-yl)phenyl} cyclopropane-carboxamide], the IC50 in experiment [1] is 50.9 nM; in experiment [2] (setting [3]) it was 83.2 nM.
The corresponding values for `O=C(Nc1ccc(-c2ccc(C(F)(F)F)nc2)c(-c2nnn[nH]2)c1)C1(c2ccc(Cl)cc2)CC1` [Example 203, 1-(4-chlorophenyl)-N-{3-(1H-tetrazol-5-yl)-4-[6-(trifluoromethyl)pyridin-3-yl]phenyl} cyclopropane-carboxamide] are 36.7 nM and 92.2 nM.
With `O=C(Nc1ccc(-c2ccc(C(F)F)nc2)c(-c2nnn[nH]2)c1)C1(c2ccc(F)c(F)c2)CC1` [Example 207, N-{4-[6-(difluoromethyl)pyridin-3-yl]-3-(1H-tetrazol-5-yl)phenyl}-1-(3,4-difluorophenyl) cyclopropane-carboxamide], the concentration for half-maximal inhibition (IC50) in experiment [1] stood at 14.9 nM; in experiment [2] (setting [3]), 22.4 nM.
Consider `Cc1ccc(-c2ccc(NC(=O)C3(c4cccc(Cl)c4)CC3)cc2-c2nnn[nH]2)cn1` [Example 208, 1(3-chlorophenyl)-N-[4-(6-methylpyridin-3-yl)-3-(1H-tetrazol-5-yl)phenyl] cyclopropane-carboxamide], for which the half-inhibitory concentration (IC50) in experiment [1] stood at 11.2 nM; in experiment [2] (setting [3]), 22.6 nM; in experiment [2] (setting [4]), 15.8 nM.
Regarding `Cc1ccc(-c2ccc(NC(=O)C3(c4ccc(C(F)(F)F)cc4F)CC3)cc2-c2nnn[nH]2)cn1` [Example 209, 1-[2-fluoro-4-(trifluoromethyl)phenyl]-N-[4-(6-methylpyridin-3-yl)-3-(1H-tetrazol-5-yl)phenyl] cyclopropane-carboxamide], the half-maximal inhibitory concentration (IC50) in experiment [1] is 3.05 nM; in experiment [2] (setting [3]), 2.96 nM.
`Cc1cc(-c2ccc(NC(=O)C3(c4cccc(Cl)c4F)CC3)cc2-c2nnn[nH]2)ccn1` [Example 211, 1-(3-chloro-2-fluorophenyl)-N-[4-(2-methylpyridin-4-yl)-3-(1H-tetrazol-5-yl)phenyl] cyclopropane-carboxamide]: the IC50 came out at 19.1 nM in experiment [1], 10.5 nM in experiment [2] (setting [3]) and 23.1 nM in experiment [2] (setting [4]).
As for `Cc1cc(-c2ccc(NC(=O)C3(c4ccc(C(F)(F)F)cc4F)CC3)cc2-c2nnn[nH]2)ccn1` [Example 212, 1-[2-fluoro-4-(trifluoromethyl)phenyl]-N-[4-(2-methylpyridin-4-yl)-3-(1H-tetrazol-5-yl)phenyl] cyclopropane carboxamide], the results for the IC50 in experiment [1] and in experiment [2] (setting [3]) were 3.92 nM and 2.77 nM, respectively.
For `Cn1ncc2ccc(-c3ccc(NC(=O)C4(c5cccc(Cl)c5)CC4)cc3-c3nnn[nH]3)cc21` [Example 213, 1-(3-chlorophenyl)-N-[4-(1-methyl-1H-indazol-6-yl)-3-(1H-tetrazol-5-yl)phenyl] cyclopropane-carboxamide], the results for the IC50 in experiment [1], in experiment [2] (setting [3]) and in experiment [2] (setting [4]) were 24.7 nM, 18 nM and 63.2 nM, respectively.
For the compound `Cn1ncc2ccc(-c3ccc(NC(=O)C4(c5cccc(Cl)c5F)CC4)cc3-c3nnn[nH]3)cc21` [Example 214, 1-(3-chloro-2-fluorophenyl)-N-[4-(1-methyl-1H-indazol-6-yl)-3-(1H-tetrazol-5-yl)phenyl] cyclopropane carboxamide], the figures for the concentration for half-maximal inhibition (IC50) in experiment [1], in experiment [2] (setting [3]) and in experiment [2] (setting [4]) were 26.9 nM, 7.93 nM and 47.2 nM, respectively.
As for `Cn1ncc2ccc(-c3ccc(NC(=O)C4(c5ccc(C(F)(F)F)cc5F)CC4)cc3-c3nnn[nH]3)cc21` [Example 215, 1-[2-fluoro-4-(trifluoromethyl)phenyl]-N-[4-(1-methyl-1H-indazol-6-yl)-3-(1H-tetrazol-5-yl)phenyl] cyclopropane-carboxamide], the figures for the IC50 in experiment [1] and in experiment [2] (setting [3]) were 8.48 nM and 3.21 nM, respectively.
The corresponding values for `CCn1cc(-c2ccc(NC(=O)C3(c4cccc(Cl)c4)CC3)cc2-c2nnn[nH]2)cn1` [Example 216, 1-(3-chlorophenyl)-N-[4-(1-ethyl-1H-pyrazol-4-yl)-3-(1H-tetrazol-5-yl)phenyl] cyclopropane-carboxamide] are 38.8 nM and 40.6 nM.
As to `CCOc1ccc(-c2ncc(NC(=O)C3(c4cccc(Cl)c4)CC3)cc2-c2nnn[nH]2)cn1` [Example 218, 1-(3-chlorophenyl)-N-[6′-ethoxy-3-(1H-tetrazol-5-yl)-2,3′-bipyridin-5-yl]cyclopropane carboxamide], the results for the IC50 in experiment [1], in experiment [2] (setting [3]) and in experiment [2] (setting [4]) were 31.6 nM, 264 nM and 75 nM, respectively.
The corresponding values for `O=C(Nc1cc(-c2nnn[nH]2)c(-c2ccc(C(F)(F)F)nc2)cc1O)C1(c2ccc(F)c(Cl)c2)CC1` [Example 220, 1-(3-chloro-4-fluorophenyl)-N-{2-hydroxy-5-(1H-tetrazol-5-yl)-4-[6-(trifluoromethyl)pyridin-3-yl]phenyl} cyclopropane-carboxamide] are 23.1 nM, 27.4 nM and 49.8 nM.
With `O=C(Nc1cc(-c2nnn[nH]2)c(-c2ccc(C(F)(F)F)nc2)cc1O)C1(c2cc(Cl)ccc2F)CC1` [Example 222], the IC50 in experiment [1] came to 55.6 nM; in experiment [2] (setting [4]) it was 75.7 nM.
For the compound `O=C(Nc1cc(-c2nnn[nH]2)c(-c2ccc(C(F)(F)F)nc2)cc1O)C1(c2ccc(Cl)c(F)c2)CC1` [Example 224, 1-(4-chloro-3-fluorophenyl)-N-{2-hydroxy-5-(1H-tetrazol-5-yl)-4-[6-(trifluoromethyl)pyridin-3-yl]phenyl} cyclopropane-carboxamide], the IC50 was determined as 108 nM in experiment [1] and 49.6 nM in experiment [2] (setting [4]).
The corresponding values for `CCOc1ccc(-c2cc(O)c(NC(=O)C3(c4ccc(Cl)cc4)CC3)cc2-c2nnn[nH]2)cn1` [Example 227, 1-(4-chlorophenyl)-N-[4-(6-ethoxypyridin-3-yl)-2-hydroxy-5-(1H-tetrazol-5-yl)phenyl] cyclopropane-carboxamide] are 177 nM and 83.8 nM.
With `COc1ccc(-c2c(F)cc(NC(=O)C3(c4ccc(C(F)(F)F)cc4)CC3)cc2-c2nnn[nH]2)cc1OC` [Example 232, N-[2-Fluoro-3′,4′-dimethoxy-6-(1H-tetrazol-5-yl)biphenyl-4-yl]-1-[4-(trifluoromethyl)phenyl] cyclopropane-carboxamide], the IC50 came to 6.8 nM in experiment [1], 8.26 nM in experiment [2] (setting [3]) and 18.6 nM in experiment [2] (setting [4]).
The corresponding values for `COc1cc(-c2ccc(NC(=O)C3(c4cccc(Cl)c4)CC3)cc2-c2nnn[nH]2)ccc1C(F)(F)F` [Example 233, 1-(3-chlorophenyl)-N-[3′-methoxy-2-(1H-tetrazol-5-yl)-4′-(trifluoromethyl)biphenyl-4-yl]cyclopropane carboxamide] are 35.2 nM, 18.9 nM and 68.6 nM.
